Reference: patent publication US10183941B2, “Pyrimidine or pyridopyridone compound and application thereof” (GUANGZHOU BEBETTER MEDICINE TECHNOLOGY CO., LTD., priority 2015, dated 2019)
pIC50: −log10 of the molar value.

Key:
[1] = tested on: phosphorylation of Rb at Ser780 in MDA-MB-231 breast cancer cells; experiment: Western Blot experiment, Rb phosphorylation; type: cell-based; settings: MDA-MB-231 cells, 16 hours incubation, FIG. 1
Method: MDA-MB-231 cells were grown in monolayer culture. […] The protein concentration was determined by the Branfor method. After being added with a loading buffer (Beyotime, # P0015L), the supernatant was boiled at 100° C. for 8 min, and the protein was separated by 8%-10% SDS-PAGE electrophoresis and then transferred to the PVDF membrane, and the membrane was blocked with 5% skimmed milk powder for 45 min, and then the cells were incubated overnight at 4° C. with primary antibody β-actin (CST, #4970), Rb (D20) Rabbit mAb (CST, #9313), Phospho-Rb(Ser780)(D59B7) Rabbit mAb (CST, #8180), and then the membrane was washed with TBST solution for 3×10 min. The cells were incubated in the dark at room temperature for 2 h with the fluorescent secondary antibody IRDye@680CW Goat (polyclonal) Anti-Rabbit 1gG (H+L), Highly Cross Adsorbed (LI-COR, #926-68071), and then the membrane was washed under the same condition above. Finally, the membrane was detected and imaged on a LI-COR Odyssey Infrared Fluorescence Scanning System, and the results are shown in FIG. 1.
CDK4/6 can make Rb protein lose the arrest on cell cycle by phosphorylating the tumor suppressor protein Rb protein. CDK4/6 inhibitor can prevent the inactivation of tumor suppressor protein Rb and thereby restore the arrest of Rb on cell cycle.

ZR-75-1 = experiment: Tumor cell proliferation inhibition (CellTiter-Glo), ZR-75-1; type: cell-based; settings: Homo sapiens, 72 hours, 10% fetal bovine serum, read-out: ZR-75-1 IC50 class
Method: (§1) The content of adenosine triphosphate (ATP) was determined using the CellTiter-Glo Luminescent Cell Viability Assay Kit (Promega, Madison, Wis.) to evaluate cell viability. Tumor cell lines (SW620, ZR-75-1, MDA-MB-231) were purchased from the Cell Resource Center of IBS, Fudan University, Shanghai and the American Type Culture Collection (ATCC). The cell density was determined using Scepter automated cell counter (Millipore # PHCC00000) after the cells were digested with pancreatin in cell culture dishes and resuspended in DPBS medium. The cells were diluted to a solution of 44,000 cells per ml. The cell solution of which density was adjusted was added into the cell assay plate at 90 microliters per well. The well plate was incubated in an incubator with 5% CO2 at 37° C. for 24 hours and then added with test compounds with different concentrations. The cells were incubated with the compounds in the presence of 10% fetal bovine serum for 72 hours. ATP content was assayed using the CellTiter-Glo® Luminescent Cell Viability Assay kit (see instructions of manufacturer) to assess cell growth inhibition. Briefly, 30 μl of CellTiter-Glo® reagent was added to each well, rocked for 10 minutes to induce cell lysis, and […] were detected and recorded with Fluoroskan Ascent FL (Thermo). The maximum signal value was obtained from the cells treated with dimethyl sulfoxide for 72 hours. The minimum signal value was obtained from the separate culture medium (cell number was zero). Inhibition rate %=(maximum signal value−compound signal value)/(maximum signal value−minimum signal value)×100. Data was processed using GraphPad Prism V5.0 (GraphPad Software, San Diego, Calif.) software. IC50 values were calculated by fitting S-shaped dose-response curves.

[2] = molecular target: T1, CDK4 (GST-CDK4(1-303end)/GST-CycD3(1-292end)) (Homo sapiens, UniProt P11802); experiment: CDK4 activity inhibition experiment (Caliper mobility shift assay); type: biochemical; settings: enzyme activity inhibition; read-out: CDK4 IC50 class
T1 construct: GST-CDK4(1-303end); purchased Carna 04-105
T1 sequence (P11802 whole entry): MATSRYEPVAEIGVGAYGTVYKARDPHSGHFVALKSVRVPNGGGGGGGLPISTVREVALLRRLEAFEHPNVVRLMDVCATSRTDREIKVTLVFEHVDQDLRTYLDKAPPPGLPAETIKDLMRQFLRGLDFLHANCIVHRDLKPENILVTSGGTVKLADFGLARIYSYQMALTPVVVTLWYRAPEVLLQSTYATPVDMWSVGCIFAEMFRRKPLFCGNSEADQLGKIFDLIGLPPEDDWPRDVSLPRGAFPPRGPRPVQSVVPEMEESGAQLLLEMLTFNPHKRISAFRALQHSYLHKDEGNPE
T1 sequence (P30281 whole entry partner): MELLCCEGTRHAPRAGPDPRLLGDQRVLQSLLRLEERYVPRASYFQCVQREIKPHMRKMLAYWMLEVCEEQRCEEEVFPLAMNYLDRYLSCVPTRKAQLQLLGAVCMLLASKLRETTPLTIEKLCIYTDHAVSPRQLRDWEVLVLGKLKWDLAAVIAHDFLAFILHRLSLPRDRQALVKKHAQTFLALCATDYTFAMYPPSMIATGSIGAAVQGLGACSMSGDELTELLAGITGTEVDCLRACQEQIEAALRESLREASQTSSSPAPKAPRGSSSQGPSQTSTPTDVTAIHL

SW620 = experiment: Tumor cell proliferation inhibition (CellTiter-Glo), SW620; type: cell-based; settings: Homo sapiens, SW-620; 72 hours, 10% fetal bovine serum; read-out: SW620 IC50 class
Method: as §1

[3] = molecular target: T2, CDK6 (GST-CDK6(1-326end)) (Homo sapiens, UniProt Q00534); experiment: CDK6 activity inhibition experiment (Caliper mobility shift assay); type: biochemical; settings: enzyme activity inhibition; read-out: CDK6 IC50 class
T2 construct: GST-CDK6(1-326end); purchased Carna 04-107
T2 sequence (Q00534 whole entry): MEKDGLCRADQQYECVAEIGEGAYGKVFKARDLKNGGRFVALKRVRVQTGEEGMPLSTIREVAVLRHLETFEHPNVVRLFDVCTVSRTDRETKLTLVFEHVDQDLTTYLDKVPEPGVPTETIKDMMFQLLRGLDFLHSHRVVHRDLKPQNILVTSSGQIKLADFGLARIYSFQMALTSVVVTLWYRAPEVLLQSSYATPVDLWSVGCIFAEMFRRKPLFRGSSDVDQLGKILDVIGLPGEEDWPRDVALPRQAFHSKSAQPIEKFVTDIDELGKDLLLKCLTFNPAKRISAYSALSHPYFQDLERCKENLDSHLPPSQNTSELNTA
T2 sequence (P30281 whole entry partner): as the sequence (P30281 whole entry partner) above
Method: The activity of CDK6 protein kinase was measured using Caliper mobility shift assay (see J. Biomol Screen 14:31, 2009). […] 10 μl of the 2.5 times diluted CDK6 enzyme solution (GST-CDK6(1-326end); Carna, Cat. No 04-107) was added and then incubated at room temperature for 10 minutes, then 10 μl of the 2.5 times diluted substrate solution Peptide FAM-P8 (GL Biochem, Cat. No. 112396) was added. After being incubated at 28° C. for 40 minutes, 25 μl of stop solution was added to stop the reaction. Conversion rate data was read from Caliper EZ Reader II (Caliper Life Sciences). The conversion rate data was converted into inhibition rate data. […] Conversion rate data was converted into inhibition rate data according to the method described above. Inhibition rate %=(max−conversion rate)/(max−min)×100.

[4] = tested on: MDA-MB-435 breast cancer cells; experiment: Pharmacodynamic experiment, MDA-MB-435 xenograft; type: in vivo, mouse
Method: MDA-MB-435 breast cancer cells were obtained from Shanghai Cell Bank of Chinese Academy of Sciences. Cryopreserved cells were thawed in a 37° C. water bath and then placed in RPMI 1640 medium supplemented with 10% fetal bovine serum (FBS), 1% insulin (Bioman Biotech, Shanghai) and incubated in 5% CO2 of Tissue Culture Incubator. […] The sign of successful transplantation was the formation of a round bulging lump under the skin. Tumor size can be measured approximately two weeks after implantation. The tumor size was measured by a caliper.

CDK2 = molecular target: T3, CDK2 (Homo sapiens, UniProt P24941); experiment: CDK2 activity inhibition experiment (Caliper mobility shift assay); type: biochemical; settings: enzyme activity inhibition; read-out: CDK2 IC50 class
T3 construct: purchased Carna 04-103
Method: After being incubated at 28° C. for 60 minutes, 25 μl of stop solution was added to stop the reaction. Conversion rate data was read from Caliper EZ Reader II (Caliper Life Sciences). The conversion rate data was converted into inhibition rate data. […] The curve was plotted with compound concentration and inhibition rate as horizontal and vertical coordinates, and the IC50 was calculated by fitting the curve using XLFit excel add-in version 4.3.1 software. Inhibition rate %=(max-conversion rate)/(max-min)×100.

MDA-MB-231 = experiment: Tumor cell proliferation inhibition (CellTiter-Glo), MDA-MB-231; type: cell-based; settings: Homo sapiens, 72 hours, 10% fetal bovine serum, read-out: MDA-MB-231 IC50 class
Method: as §1

## CC(=O)c1c(C)c2cnc(Nc3ccc(C4CCN(CCS(C)(=O)=O)CC4)cn3)nc2n(C2CCCC2)c1=O [Compound 1, 6-acetyl-8-cyclopentyl-5-methyl-2-((5-(1-(2-(methylsulfonyl)ethyl)piperidin-4-yl)pyridin-2-yl)amino)pyrido[2,3-d]pyrimidin-7(8H)-one]
[1]
  phosphorylation of Rb at Ser780 site: effectively reduce
ZR-75-1
  pIC50: 6.30 to 7.00
[2]
  pIC50: > 8.00
SW620
  pIC50: 6.30 to 7.00
[3]
  pIC50: 7.30 to 8.00
[4]; after 14 days of oral administration, PD-0332991 150 then 100 mg/kg once daily, Compound 1 75 mg/kg twice daily
  T/C value: 25%
[4]; day 6 after discontinuation (D20)
  T/C value: 32%
CDK2
  pIC50: < 6.30
MDA-MB-231
  pIC50: 6.30 to 7.00
